Consider 2 compounds from patent publication US20250065017A1, “Fractionating Extracellular Matrix to Modulate Bioactivity and the Host Response” (University of Pittsburgh - Of the Commonwealth System of …, priority 2014, published 2025).

Assay [1] deals with THP1 macrophages. In words: PGE2 and PGF2α secretion (ELISA). As to conditions: coadministered along with UBM hydrogel. Format: cell-based, human. The method, then:
(§1) THP-1 human monocytes were obtained from the American Tissue Culture Collection (ATCC, Manassas, VA) and maintained in RPMI, 10% FBS, 1% penicillin/streptomycin, 2 mM L-glutamine, and 1 mM sodium pyruvate in a humidified atmosphere at 37° C. with 5% CO2. For TNFα, PGE2, PGF2α, IL-1β, and IL-1RA experiments, 500,000 THP-1 cells/well were plated with 320 nM phorbol 12-myristate 13-acetate (PMA) for 24 hours to induce differentiation into macrophages. Adherent macrophages were washed in PBS and placed in fresh media, followed by a 24 hour incubation in fresh media to acquiesce. Human PSCs were isolated from blood vessels in fetal muscle according to the methods outlined by Crisan et al. [Purification and long-term culture of multipotent progenitor cells affiliated with the walls of human blood vessels: myoendothelial cells and pericytes. […]
(§2) Macrophages prepared as described in the Cell Culture section were treated with UBM digest (290 μg/mL) or fractionated components (80 μg/mL soluble, 170 μg/mL structural) for 48 (TNFα, IL-1β and IL-1RA), or 72 (PGE2 and PGF2α) hours. […] Commercially available ELISA kits were used to determine the absolute quantities of TNFα (BD Bioscience, San Jose, CA), PGE2 (Enzo, Farmingdale, NY), PGF2α (Enzo, Farmingdale, NY), IL-1β (BD Bioscience, San Jose, CA), and IL1-RA (R&D Systems, Minneapolis, MN) according to the manufacturer's instructions. […]
(ELISA stands for enzyme-linked immunosorbent assay.)

The test system of assay [2] is THP-1 macrophages. The assay is described as follows: TNFα and IL-1β secretion after treatment (ELISA). As to conditions: 48 hours treatment. The class given is cell-based, human. The procedure:
as §1, §2

As for `CS(=O)(=O)Nc1ccc([N+](=O)[O-])cc1OC1CCCCC1` [NS-398], the “PGE2 secretion on co-incubation with COX2 inhibitor” value in assay [1] was “abrogated PGE2 secretion down to control levels”.

In the case of lipopolysaccharide [LPS], in assay [2], the “production of TNFα and IL-1β above control” value is on record as 100-1000 fold.
